The assay deals with AMPK. Nature of the assay: In vitro assay of AMPK activity (AlphaScreen, phosphorylation of human ACC1 fragment aa 1-120). The format is biochemical. To be noted: AMPK partially purified from HEK cells, 100 uM ATP, room temperature, 60 minutes, read-out: ED50 (the source's name). As for the experimental part: AMPK activity was measured by the phosphorylation of the amino-teminal fragment of human acetyl CoA carboxylase-type 1, amino acids 1-120. The fragment was expressed as a biotinylated fusion protein in E. coli. The enzyme assay was conducted in a 5 ul reaction mixture containing 60 mM HEPES, pH7.0, 50 mM NaCL, 1 mM DTT, 5 mM MgCL2, 0.05% Tween-20, 100 uM ATP and with 25 uM AMP as a positive control. The reaction was carried out at room temperature for 60 minutes and stopped by addition of 5 ul of stop solution consisting of 20 mM EDTA, 0.1% BSA, 1% Triton-X-100, 0.01% Tween-20, 100 mM Tris pH8.0, 1:5,000 dilution of internally producted anti-pS79 (acetyl CoA carboxylase-1) purified rabbit polyclonal antibody, 40 ug/ml of AlphaScreen (Perkin Elmer) Acceptor beads and 40 ug/ml of AlphaScreen (Perkin Elmer) donor beads. The reaction mixture was further incubated at RT for 2 hours and analyzed on Fusion-Alpha microplate analyzer.
The AMPK assay was performed in a 25 ul reaction volume with the same reaction buffer as AMPK alpha assay at 30 C for 30 minutes. The reaction was stopped with SDS-PAGE sample buffer. The phosphorylated-GST-ACC was subjected to western blot analysis with anti-phospho-serine 79-ACC1 antibody (Cell Signaling Technologies). AMPK used in the assays described above was partially purified (Blazquez, C. et. al.).
The AMP-activated protein kinase is involved in the regulation of ketone body production by astrocytes. J. Neurochem. 73: 1674 (1999)) from HEKs (a human embryonic kidney cell line) and unless otherwise specified, chemicals used in the above assay were supplied by Sigma.

Take `Oc1ccccc1-c1ccc(-c2ccc3[nH]ccc3c2)cc1` [Compound 1, 5-(2-Hydroxybiphenyl)-1H-indole]: the EC50 lay within 10 to 50 µM.
For the compound `N#Cc1c(O)nc2ccc(-c3ccc(-c4ccccc4O)cc3)cc2c1O` [Compound 2, 6-(2-Hydroxybiphenyl)-2,4-dihydroxyquinoline-3-carbonitrile], the EC50 was not above 10 µM.
For `N#Cc1c(O)nc2cccc(-c3ccc(-c4ccccc4O)cc3)c2c1O` [Compound 3, 5-(2-Hydroxybiphenyl)-2,4-dihydroxyquinoline-3-carbonitrile], the EC50 is not above 10 µM.
The result for `O=Cc1c[nH]c2ccc(-c3ccc(-c4ccccc4O)cc3)cc12` [Compound 4, 5-(2-Hydroxybiphenyl)-1H-indole-3-carbaldehyde] reads 10 to 50 µM.
Consider `N#Cc1c[nH]c2ccc(-c3ccc(-c4ccccc4O)cc3)cc12` [Compound 5, 5-(2-Hydroxybiphenyl)-1H-indole-3-carbonitrile], for which the EC50 was not above 10 µM.
Take `O/N=C/c1c[nH]c2ccc(-c3ccc(-c4ccccc4O)cc3)cc12` [Compound 6, 5-(2-Hydroxybiphenyl)-1H-indole-3-carbaldehyde oxime]: the EC50 was not below 50 µM.
The result for `N#Cc1c(O)nc2nc(-c3ccc(-c4ccccc4O)cc3)[nH]c2c1O` [Compound 7, 3-(2-Hydroxybiphenyl)-4,6-dihydroxyimidazo[5,4-b]pyridine-5-carbonitrile] reads not above 10 µM.
With `N#Cc1c(O)nc2ncc(-c3ccc(-c4ccccc4O)cc3)cc2c1O` [Compound 8, 6-(2-Hydroxybiphenyl)-2,4-dihydroxy-1,8-naphthyridine-3-carbonitrile] the figure was not above 10 µM; with `N#Cc1c(O)cc2onc(-c3ccc(-c4ccccc4O)cc3)c2c1O` [Compound 9, 3-(2-Hydroxybiphenyl)-4,6-dihydroxyisoxazolo[5,4-b]pyridine-5-carbonitrile], 10 to 50 µM.

(Values after patent publication US8273744B2, “AMPK modulators” (priority 2008, dated 2012).)
